In data set [1] the test system is (+)-MK801 binding site of the ionotropic NMDA receptor. The data set is described as follows: (3H)-(+)-MK801 receptor bonding test on rat cerebral membrane homogenates. The note with it: 1 nmol/l (3H)-(+)-MK801, rat brain membrane homogenate; for Percentage inhibition of (3H)-(+)-MK801 binding at 10 μM: 10 μmol/l compound, triple determinations; for Ki: calculated from IC50 by Cheng-Prusoff equation. The protocol: Research to determine the NMDA antagonistic effect of each compound in general formula I was carried out on cerebral membrane homogenates (homogenate of rat brain without cerebellum, pons and medulla oblongata taken from male Wistar rats (Charles River, Sulzfeld, Germany)).
For this purpose, after separating the cerebellum, pons and medulla oblongata, freshly prepared rat brains were macerated in 50 mmol/l of tris/HCl (pH 7.7) with a Polytron homogeniser (model PT3000, Kinematika AG, Littau, Switzerland) at 6000 revolutions per minute (rpm) for 1 minute with ice cooling and centrifuged for 15 minutes at 4° C. and 60,000 g. After decanting and discarding the supernatant, again placing in 50 mmol/l of tris/HCl (pH 7.7) and macerating the membrane pellet with a homogeniser at 2000 rpm for 1 minute, it was centrifuged again for 15 minutes at 4° C. and 60,000 g. The supernatant was again discarding and the membrane pellet homogenised (2000 rpm for 1 minute) in 50 mmol/l of tris/HCl (pH 7.7) and frozen in aliquots at −70° C.
For the receptor bonding test, each aliquot was defrosted and then centrifuged for 15 minutes at 4° C. and 60,000 g. After decanting and discarding the supernatant, the membrane pellet was taken up with bonding test buffer and homogenised (2000 rpm for 1 minute). The bonding test buffer was 5 mmol/l tris/HCl (pH 7.7) supplemented with 30 μmol/l of glycine and 100 μmol/l of glutamic acid.
1 nmol/l of (^3H)-(+)-MK801 ((5R, 10S)-(+)-5-methyl-10,11-dihydro-5H-dibenzo(a,d)cycloheptane-5,10-imine was used as a radioactively marked ligand (NET-972, NEN, Cologne Germany). The proportion of unspecific bonding was determined in the presence of 10 μmol/l of non-radioactively marked (+)-MK801 (RBI/Sigma, Deisenhofen, Germany). In further batches, each of the compounds of general formula I were added in series of concentrations and the displacement of the radioactive ligand out of its specific bond to the NMDA receptor determined. All the batches were subjected to triple determinations. The batches were each incubated for 40 minutes at 25° C. in a water bath and then harvested for determination of the radioactive ligand bound to the cerebral membrane homogenate by means of filtration through glass-fibre filters (GF/B) (Whatman GF/B, Hassel, Munich, Germany). The radioactivity retained by the glass-fibre filter discs was measured in a β counter (Packard TRI-CARB Liquid Scintillation Analyser 2000CA, Packard Instrument, Meriden, Conn. 06450, USA) after adding a scintillator (“Ready Protein” scintillator, Beckmann Coulter GmhH, Krefeld, Germany).
The percentage inhibition of the specific bonding of the ligand (^3H)-(+)-MK801 in the presence of 10 μmol/l of each compound of general formula I resulting from the triple batches is used as a measure of the affinity of the compound for the (+)-MK801 binding site of the ionotropic NMDA receptor. From batches with concentration series of these compounds of general formula I, the IC50 values (concentration of substituted compounds with 50% displacement of radioactive ligand out of its specific bond) were calculated in accordance with the law of mass action using non-linear regression. From these IC50 values, the Kj values were calculated in accordance with the Cheng-Prusoff equation (Y. Cheng, W. H. Prusoff, 1973, Biochem. Pharmacol., 22, pp 3099-3108).

Structures are written as SMILES.

By Ki is commonly meant the dissociation constant of the complex between target and ligand, obtained from inhibition or displacement. By melting point is commonly meant the temperature, or range, at which the solid turns liquid. As to `CN(C)C(c1ccccc1)C1CCCCC1(O)CCc1ccccc1.Cl` (centres unmarked) [Example 1, 2-(dimethylaminophenylmethyl)-1-phenethylcyclohexanol, hydrochloride], the melting point was 100 °C. Further, in data set [1], the “Percentage inhibition of (3H)-(+)-MK801 binding at 10 μM” value (“Percentage inhibition” below) was determined as 56% and the inhibitory constant (Ki) was 3.8 µM.
The corresponding values for `CN(C)C(c1ccccc1Cl)C1CCCCC1(O)CCc1ccccc1.Cl` (centres unmarked) [Example 2, 2-[(2-chlorophenyl)dimethylaminomethyl]-1-phenethylcyclohexanol, hydrochloride] are 110 °C, 95% and 1.7 µM.
On the same counts, the results for `CN(C)C(c1ccccc1Br)C1CCCCC1(O)CCc1ccccc1.Cl` (centres unmarked) [Example 3, 2-[(2-bromophenyl)dimethylaminomethyl]-1-phenethylcyclohexanol, hydrochloride] are 162 to 165 °C, 91% and 1.7 µM.
In the case of `COc1cccc(C(C2CCCCC2(O)CCc2ccccc2)N(C)C)c1.Cl` (centres unmarked) [Example 4, 2-[dimethylamino-(3-methoxyphenyl)methyl]-1-phenethylcyclohexanol, hydrochloride], the melting point is 90 °C. Besides, in data set [1], the “Percentage inhibition” value is on record as 51% and the inhibition constant Ki was 6.2 µM.
The corresponding values for `Cc1ccccc1C(C1CCCCC1(O)CCc1ccccc1)N(C)C.Cl` (centres unmarked) [Example 5, 2-(dimethylamino-o-tolylmethyl)-1-phenethylcyclohexanol, hydrochloride] are 187 to 188 °C, 93% and 1.3 µM.
Compound `CN(C)C(c1ccccc1)C1CCCCC1(O)CCCc1ccccc1.Cl` (centres unmarked) [Example 6, 2-(dimethylaminophenylmethyl)-1-(3-phenylpropyl)cyclohexanol, hydrochloride] registered a melting point of 90 °C. Further, in data set [1], the “Percentage inhibition” value is given as 74% and the Ki is 2.6 µM.
As for `CN(C)C(c1ccccc1)C1CCCCC1(O)CCc1ccccc1F.Cl` (centres unmarked) [Example 7, 2-(dimethylaminophenylmethyl)-1-[2-(2-fluorophenyl)ethyl]cyclohexanol, hydrochloride], the melting point worked out at 95 °C. In data set [1], the “Percentage inhibition” value was determined as 91% and the Ki was 1.1 µM.
Take `CN(C)C(c1ccccc1F)C1CCCCC1(O)CCc1ccccc1.Cl` (centres unmarked) [Example 8, 2-[dimethylamino-(2-fluorophenyl)methyl]-1-phenethylcyclohexanol, hydrochloride]: the melting point was in the range of 172 to 174 °C. In addition, in data set [1], the “Percentage inhibition” value was determined as 91% and the Ki was 1.6 µM.
For the compound `CN(C)C(c1ccccc1Cl)C1CCCCC1(O)CCc1ccc(F)cc1.Cl` (centres unmarked) [Example 9, 2-[(2-chlorophenyl)dimethylaminomethyl]-1-[2-(4-fluorophenyl)ethyl]cyclohexanol, hydrochloride], the melting point stood at 170 °C. Besides, in data set [1], the “Percentage inhibition” value is recorded as 67% and the Ki is 3.8 µM.
The corresponding values for `CN(C)C(c1ccccc1Cl)C1CCCCC1(O)CCc1ccccc1F.Cl` (centres unmarked) [Example 10, 2-[(2-chlorophenyl)dimethylaminomethyl]-1-[2-(2-fluorophenyl)ethyl]cyclohexanol, hydrochloride] are 162 to 163 °C, 102% and 0.4 µM.
`CN(C)C(c1ccccc1Cl)C1CCCCC1(O)CCc1cccc(F)c1.Cl` (centres unmarked) [Example 11, 2-[(2-chlorophenyl)dimethylaminomethyl]-1-[2-(3-fluorophenyl)ethyl]cyclohexanol, hydrochloride] showed a melting point of 120 to 126 °C. In data set [1], the “Percentage inhibition” value is 93% and the Ki was 2.1 µM.
The corresponding values for `CN(C)C(c1ccccc1)C1CCCCC1(O)CCc1ccccc1Cl.Cl` (centres unmarked) [Example 12, 1-[2-(2-chlorophenyl)ethyl]-2-(dimethylaminophenylmethyl)cyclohexanol, hydrochloride] are 152 °C, 85% and 1.5 µM.
On the same counts, the results for `CN(C)C(c1ccccc1)C1CCCCC1(O)CCc1cccc(Cl)c1.Cl` (centres unmarked) [Example 13, 1-[2-(3-chlorophenyl)ethyl]-2-(dimethylaminophenylmethyl)cyclohexanol, hydrochloride] are 95 °C, 61% and 3.1 µM.
The corresponding values for `Cl.OC1(CCc2ccccc2)CCCCC1C(c1ccccc1)N1CCCCC1` (centres unmarked) [Example 14, 1-phenethyl-2-(phenylpiperidine-1-yl-methyl)cyclohexanol, hydrochloride] are 127 °C, 88% and 2.8 µM.
Consider `Cc1ccccc1C(C1CCCCC1(O)CCc1ccccc1Cl)N(C)C.Cl` (centres unmarked) [Example 15, 1-[2-(2-chlorophenyl)ethyl]-2-(dimethylamino-o-tolylmethyl)cyclohexanol, hydrochloride], for which the melting point was 190 to 194 °C. Also, the “Percentage inhibition” value in data set [1] turned out to be 100%. Further, the Ki in data set [1] (hydrochloride) was 0.7 µM.
Turning to `CN(C)C(c1ccccc1F)C1CCCCC1(O)CCc1ccccc1Cl.Cl` (centres unmarked) [Example 19, 1-[2-(2-chlorophenyl)ethyl]-2-(dimethylamino-(2-fluorophenyl)methyl]cyclohexanol, hydrochloride], the melting point was 213 °C. Also, in data set [1], the “Percentage inhibition” value is 102% and the Ki was 0.8 µM.
The corresponding values for `Cc1ccccc1C(C1CCCCC1(O)CCc1ccccc1Cl)N1CCCC1.Cl` (centres unmarked) [Example 23, 1-[2-(2-chlorophenyl)ethyl]-2-(pyrrolidine-1-yl-o-tolylmethyl)cyclohexanol, hydrochloride] are 155 °C, 101% and 0.4 µM.
Regarding `CN(C)C(c1ccccc1C(F)(F)F)C1CCCCC1(O)CCc1ccccc1F.Cl` (centres unmarked) [Example 47, 2-[dimethylamino-(2-trifluoromethylphenyl)methyl]-1-[2-(2-fluorophenyl)ethyl]cyclohexanol, hydrochloride], in data set [1], the “Percentage inhibition” value was 90% and the Ki was 1.4 µM.

The values above are taken from patent publication US6784175B2, “Use of substituted 1-amino-5-phenylpentane-3-ol and/or 1-amino-6-phenylhexane-3-ol compounds as medicaments” (Gruenenthal GmbH, priority 2000, dated 2004).
